Each structure is given as a SMILES string. Where two headings read alike, the source gives them in different places.

For experiment [1], the system named is adult mongrel dogs. Kind of experiment: acute in vivo cardiotonic activity in anesthetized dogs. Also on record: species or system dog (adult mongrel). The settings on record: Canis lupus familiaris, cardiotonic, relative to controls; for change in vivo at 1.875 mg/kg: dose 1.875 mg/kg intravenous; for change in vivo at 0.375 mg/kg: dose 0.375 mg/kg intravenous; for change in vivo at 0.125 mg/kg: dose 0.125 mg/kg intravenous; for change in vivo at 0.875 mg/kg: dose 0.875 mg/kg intravenous. Here is the method: The acute in vivo cardiotonic activity of compounds prepared according to the present invention was determined according to a modification of the procedure described by Alousi et al., Circ. Res., 45, 666 (1979).
In particular, adult mongrel dogs were anesthetized with sodium pentobarbital and were artificially respired. Arterial pressure was monitored via a femoral artery, and the pulse pressure was used to trigger a cardiotachometer for heart rate. Left ventricular pressure was determined with a Millar catheter, and dP/dt (the change in ventricular pressure with time) was derived. Cardiac output was determined by measuring ascending aortic blood flow with an electromagnetic flow probe, and myocardial contractile force was measured with a Walton Brodie strain gauge sutured to the right ventricle. Lead II EKG was also recorded.
A standard dose (10 μg/kg/min) of dopamine was administered to assess myocardial responsiveness.
Compounds of the invention were administered by intravenous infusion or bolus […] administration, and the effects on cardiovascular parameters were determined.
Dose related effects of the test compound on blood pressure (BP), heart rate (HR), maximum change in left ventricular pressure with time (dP/dt max),% change in cardiac force (CF) and the increase in mean arterial blood pressure relative to controls (MABP) were compared to pretreatment control values, expressed as a% change and rated for activity.

In experiment [2] the test system is adult mongrel dogs. Nature of the experiment: renal vasodilating activity in anesthetized dogs. It counts as in vivo, dog (adult mongrel). The conditions noted are these: Canis lupus familiaris, renal vasodilator, relative to controls; for change in vivo at 1.2 mg/kg: dose 1.2 mg/kg intravenous; for change in vivo at 6.2 mg/kg: dose 6.2 mg/kg intravenous; for change in vivo at 0.2 mg/kg: dose 0.2 mg/kg intravenous; for change in vivo at 13.9 mg/kg / change in vivo at up to 13.9 mg/kg: dose 13.9 mg/kg intravenous. The protocol: Goldberg et al, J. Pharmacol. Exp. Ther., 163, 188 (1968), performed an investigation of the structural requirements for dopamine-like renal vasodilation of phenethylamines and apomorphine. The following procedure is a variation of the assay described in that report.
Adult mongrel dogs were anesthetized and surgically prepared for electromagnetic measurement of renal artery blood flow. A carotid artery was cannulated for measuring arterial blood pressure, and drugs were administered intravenously. Heart rate was monitored with a cardiotachometer. Renal vascular resistance was calculated as the ratio of mean arterial blood pressure/renal artery blood flow. Dopamine was infused intravenously at 3 μg/kg/min for ten minutes (at an infusion rate of about 1 ml/min) to determine responsiveness of each dog to renal dopamine receptor stimulation. Cumulative dose-response data were obtained by infusing a compound of this invention at progressively increasing (usually three-fold) infusion rates, each dose being infused for five minutes. The maximum % increase from pre-drug control in renal artery blood flow (or a decrease in renal vascular resistance) was determined for each infusion dose.
RBF values are percent change in renal blood flow. RVR values are percent change in renal vascular resistance. MABP and HR are percent changes in mean arterial blood pressure and heart rate, respectively, relative to controls.

Where [3] appears, read: read-out: MABP (mean arterial blood pressure).
The mark [4] stands for this setting: read-out: dP/dt (maximum change left ventricular pressure with time).
Where [5] appears, read: read-out: RBF (renal blood flow).
Where [6] appears, read: read-out: RVR (renal vascular resistance).

For the molecule `Cc1nc(O)c(Cl)c2cc3c(cc12)OCO3` [AG], the change in vivo at 1.875 mg/kg is 88% in the experiment on adult mongrel dogs [1] (read-out: CF (cardiac force)), 28% in the experiment on adult mongrel dogs [1] (read-out: HR (heart rate)), -22% with adult mongrel dogs [1] (setting [3]) and 51% in the experiment on adult mongrel dogs [1] (setting [4]). For the same molecule, the change in vivo at 1.2 mg/kg in the experiment on adult mongrel dogs [2] (read-out: HR (heart rate)) is 27%; in the experiment with adult mongrel dogs [2] (setting [3]), -27%; with adult mongrel dogs [2] (setting [5]), 10%; in the experiment with adult mongrel dogs [2] (setting [6]), -34%.

Turning to `COc1cc2c(C)nc(O)c(CC(C)C)c2cc1OC` [AJ], the change in vivo at 1.875 mg/kg in the experiment with adult mongrel dogs [1] (read-out: CF (cardiac force)) is 39%; in the experiment with adult mongrel dogs [1] (read-out: HR (heart rate)), 10%; in the experiment on adult mongrel dogs [1] (setting [3]) it was -6%; in the experiment on adult mongrel dogs [1] (setting [4]), 25%. Moreover, the change in vivo at 6.2 mg/kg with adult mongrel dogs [2] (read-out: HR (heart rate)) is 2%; in the experiment on adult mongrel dogs [2] (setting [3]) it was 4%; in the experiment with adult mongrel dogs [2] (setting [5]) it was 9%; with adult mongrel dogs [2] (setting [6]), -4%.

For the molecule `CCOc1cc2c(C)nc(O)cc2cc1OC` [AK], the change in vivo at 0.375 mg/kg with adult mongrel dogs [1] (read-out: CF (cardiac force)) is 114%; in the experiment with adult mongrel dogs [1] (read-out: HR (heart rate)) it was 13%; in the experiment on adult mongrel dogs [1] (setting [3]), -5%; in the experiment on adult mongrel dogs [1] (setting [4]) it was 39%. The change in vivo at 0.2 mg/kg with adult mongrel dogs [2] (read-out: HR (heart rate)) is 10%; in the experiment with adult mongrel dogs [2] (setting [3]), -2%; with adult mongrel dogs [2] (setting [5]), 10%; in the experiment on adult mongrel dogs [2] (setting [6]), -11%.

As for `CCOc1cc2cnc(O)cc2cc1OC` [AQ], the change in vivo at 1.2 mg/kg with adult mongrel dogs [2] (read-out: HR (heart rate)) was 16%; with adult mongrel dogs [2] (setting [3]) it was 0%; with adult mongrel dogs [2] (setting [5]), 13%; with adult mongrel dogs [2] (setting [6]), -12%.

In the case of `CCOc1cc2c(C)nc(O)c(CC)c2cc1OC` [AS], the change in vivo at 0.125 mg/kg with adult mongrel dogs [1] (read-out: CF (cardiac force)) is 78%; in the experiment on adult mongrel dogs [1] (read-out: HR (heart rate)), 8%; in the experiment on adult mongrel dogs [1] (setting [3]), -10%; in the experiment on adult mongrel dogs [1] (setting [4]), 49%. In addition, the change in vivo at 6.2 mg/kg is 2% with adult mongrel dogs [2] (read-out: HR (heart rate)), -1% in the experiment on adult mongrel dogs [2] (setting [3]), 9% in the experiment with adult mongrel dogs [2] (setting [5]) and -11% in the experiment with adult mongrel dogs [2] (setting [6]).

Consider `COc1cc(Br)c2cc(O)nc(C)c2c1OC` [AU], for which the change in vivo at 6.2 mg/kg with adult mongrel dogs [2] (read-out: HR (heart rate)) is -3%; with adult mongrel dogs [2] (setting [3]), 0%; in the experiment with adult mongrel dogs [2] (setting [5]), 20%; in the experiment with adult mongrel dogs [2] (setting [6]) it was -10%.

Regarding `CCOc1cc2cc(O)nc(C)c2cc1OC` [AW], the change in vivo at 6.2 mg/kg is 59% in the experiment with adult mongrel dogs [2] (read-out: HR (heart rate)), -17% in the experiment with adult mongrel dogs [2] (setting [3]), 20% with adult mongrel dogs [2] (setting [5]) and -34% with adult mongrel dogs [2] (setting [6]).

Turning to `Cc1nc(O)cc2cc(O)c(O)cc12` [Compound A], the change in vivo at 13.9 mg/kg with adult mongrel dogs [2] (read-out: HR (heart rate)) is 14%; with adult mongrel dogs [2] (setting [3]), -9%; in the experiment with adult mongrel dogs [2] (setting [5]) it was 30%. Moreover, the change in vivo at up to 13.9 mg/kg in the experiment with adult mongrel dogs [2] (setting [6]) is -30%.

For `COc1ccc2cc(O)nc(C)c2c1OC` [Compound C, 3-Hydroxy-7,8-dimethoxy-1-methylisoquinoline], the change in vivo at 0.875 mg/kg in the experiment on adult mongrel dogs [1] (read-out: CF (cardiac force)) is 62%; with adult mongrel dogs [1] (read-out: HR (heart rate)), 10%; in the experiment with adult mongrel dogs [1] (setting [3]), -6%; in the experiment on adult mongrel dogs [1] (setting [4]) it was 51%.

For `Cc1nc(O)cc2ccc(O)c(O)c12` [Compound I], the change in vivo at 13.9 mg/kg with adult mongrel dogs [2] (read-out: HR (heart rate)) was 38%; in the experiment on adult mongrel dogs [2] (setting [3]), -4%; in the experiment on adult mongrel dogs [2] (setting [5]), 35%. Also, in the experiment with adult mongrel dogs [2] (setting [6]), the change in vivo at up to 13.9 mg/kg was -29%.

`COc1cc2c(C)nc(O)c(CCC(=O)OC(C)C)c2cc1OC` [Compound R, 4-β-Carboisopropoxyethyl-3-hydroxy-6,7-dimethoxy-1-methylisoquinoline]: the change in vivo at 1.875 mg/kg in the experiment on adult mongrel dogs [1] (read-out: CF (cardiac force)) was 22%; in the experiment on adult mongrel dogs [1] (read-out: HR (heart rate)), 3%; in the experiment on adult mongrel dogs [1] (setting [3]), -6%; with adult mongrel dogs [1] (setting [4]) it was 15%.

Turning to `COC(=O)CCc1c(O)nc(C)c2cc3c(cc12)OCO3` [L], the change in vivo at 0.875 mg/kg with adult mongrel dogs [1] (read-out: CF (cardiac force)) was 131%; with adult mongrel dogs [1] (read-out: HR (heart rate)) it was 38%; with adult mongrel dogs [1] (setting [3]), -21%; in the experiment on adult mongrel dogs [1] (setting [4]) it was 118%.

Regarding `CCCc1nc(O)c(CCC(=O)OC)c2cc(OC)c(OC)cc12` [M], the change in vivo at 1.875 mg/kg in the experiment with adult mongrel dogs [1] (read-out: CF (cardiac force)) is 17%; in the experiment with adult mongrel dogs [1] (read-out: HR (heart rate)), 2%; in the experiment on adult mongrel dogs [1] (setting [3]) it was -4%; in the experiment on adult mongrel dogs [1] (setting [4]), 19%.

Take `COC(=O)CCc1c(O)nc(C(C)C)c2cc(OC)c(OC)cc12` [P]: the change in vivo at 1.875 mg/kg in the experiment with adult mongrel dogs [1] (read-out: CF (cardiac force)) was 15%; in the experiment on adult mongrel dogs [1] (read-out: HR (heart rate)) it was 7%; with adult mongrel dogs [1] (setting [3]) it was 3%; in the experiment with adult mongrel dogs [1] (setting [4]), 17%.

On to `CCOC(=O)CCc1c(O)nc(C)c2cc(OC)c(OC)cc12` [S], for which the change in vivo at 0.875 mg/kg in the experiment with adult mongrel dogs [1] (read-out: CF (cardiac force)) was 60%; with adult mongrel dogs [1] (read-out: HR (heart rate)), 8%; in the experiment with adult mongrel dogs [1] (setting [3]) it was -4%; in the experiment with adult mongrel dogs [1] (setting [4]), 20%.

As to `COc1cc2c(C)nc(O)c(CCC(=O)OC3CCCC3)c2cc1OC` [T], the change in vivo at 0.875 mg/kg was 23% with adult mongrel dogs [1] (read-out: CF (cardiac force)), 9% with adult mongrel dogs [1] (read-out: HR (heart rate)), -3% in the experiment with adult mongrel dogs [1] (setting [3]) and 29% in the experiment with adult mongrel dogs [1] (setting [4]).

As to `COC(=O)CCc1c(O)ncc2cc3c(cc12)OCO3` [U], the change in vivo at 1.875 mg/kg with adult mongrel dogs [1] (read-out: CF (cardiac force)) worked out at 26%; in the experiment on adult mongrel dogs [1] (read-out: HR (heart rate)), 6%; in the experiment on adult mongrel dogs [1] (setting [3]) it was 0%; in the experiment with adult mongrel dogs [1] (setting [4]) it was 28%.

As for `CNC(=O)CCc1c(O)nc(C)c2cc(OC)c(OC)cc12` [X], the change in vivo at 0.875 mg/kg in the experiment on adult mongrel dogs [1] (read-out: CF (cardiac force)) was 40%; with adult mongrel dogs [1] (read-out: HR (heart rate)), 4%; with adult mongrel dogs [1] (setting [3]), -5%; with adult mongrel dogs [1] (setting [4]), 24%.
